The values below come from patent US7192974B2, “Hydroxymethyl substituted dihydroisoxazole derivatives useful as antibiotic agents” (AstraZeneca AB, priority 2003, dated 2007).

Where a name gives a salt, the structure may show the parent alone.

A word on the melting point: it is the temperature, or range, at which the solid turns liquid. The compound `C[N+](C)(C)CCOC(=O)OC[C@@H]1CC(c2ccc(-c3ccc(N4C[C@H](Cn5ccnn5)OC4=O)cc3F)cn2)=NO1` (as salt: chloride) [Example 32, 2-[({[(5S)-3-(5-{2-fluoro-4-[(5R)-2-oxo-5-(1H-1,2,3-triazol-1-ylmethyl)-1,3-oxazolidin-3-yl]phenyl}pyridin-2-yl)-4,5-dihydrolsoxazol-5-yl]methoxy}carbonyl)oxy]-N,N,N-trimethylethanaminium chloride] yielded a melting point of 180 to 190 °C.

On to `NCCC(=O)OC[C@@H]1CC(c2ccc(-c3ccc(N4C[C@H](Cn5ccnn5)OC4=O)cc3F)cn2)=NO1` (as salt: hydrochloride) [Example 8, [(5S)-3-(5-{2-Fluoro-4-[(5R)-2-oxo-5-(1H-1,2,3-triazol-1-ylmethyl)-1,3-oxazolidin-3-yl]phenyl}pyridin-2-yl)-4,5-dihydroisoxazol-5-yl]methyl β-alaninate], for which the melting point is 68 to 75 °C.

On to `CN(C)CC(=O)OCC1CC(c2ccc(-c3ccc(N4C[C@H](Cn5ccnn5)OC4=O)cc3F)cn2)=NO1` (stereo partly drawn) (as salt: hydrochloride) [Example 26, [3-(5-{2-fluoro-4-[(5R)-2-oxo-5-(1H-1,2,3-triazol-1-ylmethyl)-1,3-oxazolidin-3-yl]phenyl}pyridin-2-yl)-4,5-dihydroisoxazol-5-yl]methyl N,N-dimethylglycinate], for which the melting point was 175 to 180 °C.

The compound `CNCCCCC(=O)OC[C@@H]1CC(c2ccc(-c3ccc(N4C[C@H](Cn5ccnn5)OC4=O)cc3F)cn2)=NO1` (as salt: hydrochloride) [Example 37, [(5S)-3-(5-{2-fluoro-4-[(5R)-2-oxo-5-(1H-1,2,3-triazol-1-ylmethyl)-1,3-oxazolidin-3-yl]phenyl}pyridin-2-yl)-4,5-dihydroisoxazol-5-yl]methyl 5-(methylamino)pentanoate] came in with a melting point of 184 °C.

Compound `CN(C)CC(=O)N(C)CCCCC(=O)OC[C@@H]1CC(c2ccc(-c3ccc(N4C[C@H](Cn5ccnn5)OC4=O)cc3F)cn2)=NO1` (as salt: hydrochloride) [Example 38, [(5S)-3-(5-{2-fluoro-4-[(5R)-2-oxo-5-(1H-1,2,3-triazol-1-ylmethyl)-1,3-oxazolidin-3-yl]phenyl}pyridin-2-yl)-4,5-dihydroisoxazol-5-yl]methyl 5-[(N,N-dimethylglycyl)(methyl)amino]pentanoate] displayed a melting point of 133 °C.

With `CCOC(=O)CCCCC(=O)OC[C@@H]1CC(c2ccc(-c3ccc(N4C[C@H](Cn5ccnn5)OC4=O)cc3F)cn2)=NO1` [Example 6, Ethyl [(5S)-3-(5-{2-fluoro-4-[(5R)-2-oxo-5-(1H-1,2,3-triazol-1-ylmethyl)-1,3oxazolidin-3-yl]phenyl}pyridin-2-yl)-4,5-dihydroisoxazol-5-yl]methyl hexanedioate], the melting point was 88 °C.

`CN(C)CCCC(=O)OC[C@@H]1CC(c2ccc(-c3ccc(N4C[C@H](Cn5ccnn5)OC4=O)cc3F)cn2)=NO1` [Example 9, [(5S)-3-(5-{2-Fluoro-4-[(5R)-2-oxo-5-(1H-1,2,3-triazol-1-ylmethyl)-1,3-oxazolidin-3-yl]phenyl}pyridin-2-yl)-4,5-dihydroisoxazol-5-yl]methyl 4-(dimethylamino)butanoate] came in with a melting point of 148 °C.

`COC(=O)NCCCCC(=O)OC[C@@H]1CC(c2ccc(-c3ccc(N4C[C@H](Cn5ccnn5)OC4=O)cc3F)cn2)=NO1` [Example 10, [(5S)-3-(5-{2-Fluoro-4-[(5R)-2-oxo-5-(1H-1,2,3-triazol-1-ylmethyl)-1,3-oxazolidin-3-yl]phenyl}pyridin-2-yl)-4,5-dihydroisoxazol-5-yl]methyl 5-[(methoxycarbonyl)amino]pentanoate] yielded a melting point of 90 °C.

In the case of `CCN(CC)CCC(=O)OC[C@@H]1CC(c2ccc(-c3ccc(N4C[C@H](Cn5ccnn5)OC4=O)cc3F)cn2)=NO1` [Example 11, [(5S)-3-(5-{2-Fluoro-4-[(5R)-2-oxo-5-(1H-1,2,3-triazol-1-ylmethyl)-1,3-oxazolidin-3-yl]phenyl}pyridin-2-yl)-4,5-dihydroisoxazol-5-yl]methyl N,N-diethyl-β-alaninate], the melting point came to 167 °C.

The compound `COCC(=O)OC[C@@H]1CC(c2ccc(-c3ccc(N4C[C@H](Cn5ccnn5)OC4=O)cc3F)cn2)=NO1` [Example 12, [(5S)-3-(5-{2-Fluoro-4-[(5R)-2-oxo-5-(1H-1,2,3-triazol-1-ylmethyl)-1,3-oxazolidin-3-yl]phenyl}pyridin-2-yl)-4,5-dihydroisoxazol-5-yl]methyl methoxyacetate] came in with a melting point of 170 °C.

`COCCC(=O)OC[C@@H]1CC(c2ccc(-c3ccc(N4C[C@H](Cn5ccnn5)OC4=O)cc3F)cn2)=NO1` [Example 13, [(5S)-3-(5-{2-Fluoro-4-[(5R)-2-oxo-5-(1H-1,2,3-triazol-1-ylmethyl)-1,3-oxazolidin-3-yl]phenyl}pyridin-2-yl)-4,5-dihydroisoxazol-5-yl]methyl 3-methoxypropanoate] yielded a melting point of 149 °C.

For `COC(=O)OC[C@@H]1CC(c2ccc(-c3ccc(N4C[C@H](Cn5ccnn5)OC4=O)cc3F)cn2)=NO1` [Example 14, [(5S)-3-(5-{2-Fluoro-4-[(5R)-2-oxo-5-(1H-1,2,3-triazol-1-ylmethyl)-1,3-oxazolidin-3-yl]phenyl}pyridin-2-yl)-4,5-dihydroisoxazol-5-yl]methyl methyl carbonate], the melting point came out at 205 °C.

In the case of `COCCOC(=O)OC[C@@H]1CC(c2ccc(-c3ccc(N4C[C@H](Cn5ccnn5)OC4=O)cc3F)cn2)=NO1` [Example 15, [(5S)-3-(5-{2-Fluoro-4-[(5R)-2-oxo-5-(1H-1,2,3-triazol-1-ylmethyl)-1,3-oxazolidin-3-yl]phenyl}pyridin-2-yl)-4,5-dihydroisoxazol-5-yl]methyl 2-methoxyethyl carbonate], the melting point turned out to be 112 °C.

Regarding `COCCCC(=O)OC[C@@H]1CC(c2ccc(-c3ccc(N4C[C@H](Cn5ccnn5)OC4=O)cc3F)cn2)=NO1` [Example 17, [(5S)-3-(5-{2-Fluoro-4-[(5R)-2-oxo-5-(1H-1,2,3-triazol-1-ylmethyl)-1,3-oxazolidin-3-yl]phenyl}pyridin-2-yl)-4,5-dihydroisoxazol-5-yl]methyl 4-methoxybutanoate], the melting point came to 154 °C.

For the compound `O=C(OC[C@@H]1CC(c2ccc(-c3ccc(N4C[C@H](Cn5ccnn5)OC4=O)cc3F)cn2)=NO1)c1ccc[n+]([O-])c1` [Example 25, [(5S)-3-(5-{2-fluoro-4-[(5R)-2-oxo-5-(1H-1,2,3-triazol-1-ylmethyl)-1,3-oxazolidin-3-yl]phenyl}pyridin-2-yl)-4,5-dihydroisoxazol-5-yl]methyl nicotinate 1-oxide], the melting point came out at 255 °C.

In turn, `CCOC(=O)NCCCCC(=O)OCC1CC(c2ccc(-c3ccc(N4C[C@H](Cn5ccnn5)OC4=O)cc3F)cn2)=NO1` (stereo partly drawn) [Example 27, [(5S)-3-(5-{2-fluoro-4-[(5R)-2-oxo-5-(1H-1,23-triazol-1-ylmethyl)-1,3-oxazolidin-3-yl]phenyl}pyridin-2-yl)-4,5-dihydroisoxazol-5-yl]methyl 5-[(ethoxycarbonyl)amino]pentanoate] displayed a melting point of 183 °C.

In turn, `COCCCOC(=O)OC[C@@H]1CC(c2ccc(-c3ccc(N4C[C@H](Cn5ccnn5)OC4=O)cc3F)cn2)=NO1` [Example 29, (5S)-3-(5-{2-fluoro-4-[(5R)-2-oxo-5-(1H-1,2,3-triazol-1-ylmethyl)-1,3-oxazolidin-3-yl]phenyl}pyridin-2-yl)-4,5-dihydroisoxazol-5-yl]methyl 3-methoxypropyl carbonate] registered a melting point of 142 °C.

With `O=C(OC[C@@H]1CC(c2ccc(-c3ccc(N4C[C@H](Cn5ccnn5)OC4=O)cc3F)cn2)=NO1)c1cnccn1` [Example 30, [(5S)-3-(5-{2-fluoro-4-[(5R)-2-oxo-5-(1H-1,2,3-triazol-1-ylmethyl)-1,3-oxazolidin-3-yl]phenyl}pyridin-2-yl)-4,5-dihydroisoxazol-5-yl]methylpyrazine-2-carboxylate], the melting point lay in the range of 205 to 226 °C.

Regarding `O=C(OC[C@@H]1CC(c2ccc(-c3ccc(N4C[C@H](Cn5ccnn5)OC4=O)cc3F)cn2)=NO1)c1cncnc1` [Example 31], the melting point lay within 253 to 264 °C.

In the case of `COC(=O)N(C)CCCCC(=O)OC[C@@H]1CC(c2ccc(-c3ccc(N4C[C@H](Cn5ccnn5)OC4=O)cc3F)cn2)=NO1` [Example 33, [(5S)-3-(5-{2-fluoro-4-[(5R)-2-oxo-5-(1H-1,2,3-triazol-1-ylmethyl)-1,3-oxazolidin-3-yl]phenyl}pyridin-2-yl)-4,5-dihydroisoxazol-5-yl]methyl 5-[(methoxycarbonyl)(methyl)amino]pentanoate], the melting point turned out to be 82 °C.

As to `CN(CCCCC(=O)OC[C@@H]1CC(c2ccc(-c3ccc(N4C[C@H](Cn5ccnn5)OC4=O)cc3F)cn2)=NO1)C(=O)OC(C)(C)C` [Example 34, [(5S)-3-(5-{2-fluoro-4-[(5R)-2-oxo-5-(1H-1,2,3-triazol-1-ylmethyl)-1,3-oxazolidin-3-yl]phenyl}pyridin-2-yl)-4,5-dihydroisoxazol-5-yl]methyl 5-[(tert-butoxycarbonyl)(methyl)amino]pentanoate], the melting point came to 121 °C.

Regarding `COC(=O)N(C)CCCC(=O)OC[C@@H]1CC(c2ccc(-c3ccc(N4C[C@H](Cn5ccnn5)OC4=O)cc3F)cn2)=NO1` [Example 35, [(5S)-3-(5-{2-fluoro-4-[(5R)-2-oxo-5-(1H-1,2,3-triazol-1-ylmethyl)-1,3-oxazolidin-3-yl]phenyl}pyridin-2-yl)-4,5-dihydroisoxazol-5-yl]methyl 4-[(methoxycarbonyl)(methyl)amino]butanoate], the melting point worked out at 135 °C.

Turning to `COC(=O)N(C)CCCCCC(=O)OC[C@@H]1CC(c2ccc(-c3ccc(N4C[C@H](Cn5ccnn5)OC4=O)cc3F)cn2)=NO1` [Example 36, [(5S)-3-(5-{2-fluoro-4-[(5R)-2-oxo-5-(1H-1,2,3-triazol-1-ylmethyl)-1,3-oxazolidin-3-yl]phenyl}pyridin-2-yl)-4,5-dihydroisoxazol-5-yl]methyl 6-[(methoxycarbonyl)(methyl)amino]hexanoate], the melting point was found to be 103 °C.
